Laboratory results from US7115642B2, “Substituted diphenyl isoxazoles, pyrazoles and oxadiazoles useful for treating HCV infection” (priority 2003, dated 2006).
Where two headings read alike, the source gives them in different places.

Key:
[1] = test system: HCV replicon (5-2 Luc replicon-comprising cells); assay: HCV replicon assay (luciferase); type: cell-based, Hepatitis C virus; settings: 5-2 Luc replicon cells, luciferase readout, read-out: Replicon IC50
Method in brief: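 Readout: IC50 from a 50% drop in luciferase signal (Bright-Glo, luminometer), scored + (≤10 μM) or − (>10 μM). Compounds added at various concentrations to 5-2 Luc replicon cells (Huh7 background), pre-incubated 24 h, then incubated 24 h more before reading.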

[2] = test system: HCV nonstructural protein NS5A or NS3 in 9–13 replicon cells; assay: Quantitative Western blot assay; type: cell-based, Hepatitis C virus; settings: 9–13 replicon cells, NS5A or NS3 Western blot; read-out: Western IC50
Description: Alternatively, the inhibitory activity of the compounds can be confirmed using a quantitative Western immunoblot assay utilizing antibodies specific for HCV non-structural proteins, such as NS3, NS4A NS5A and NS5B. In one embodiment of this assay, replicon cells are treated with varying concentrations of test compound to determine the concentration of test compound that yields a 50% reduction in the amount of a non-structural protein produced as compared to a control sample (IC50). A single non-structural protein may be quantified or multiple non-structural proteins may be quantified. Antibodies suitable for carrying out such immunoblot assays are available commercially (e.g., from BIODESIGN International, Saco, Me.).
Certain exemplary compounds of the invention were also tested for their ability to inhibit HCV replication using a quantitative Western blot analysis with antibodies specific for the HCV nonstructural protein NS5A or NS3. Actively dividing 9–13 replicon cells were seeded into Swell plates at a density of 1×10^5 cells/well in a volume of 2 ml/well and incubated at 37° C. and 5% CO2 for 24 hours. Various concentrations of test compounds (in a volume of 10 ul) were added to the wells and the cells incubated for another 48 hours. Protein samples were prepared from the cultured cells, resolved on a SDS-PAGE gel and transferred to a nitrocellulose membrane. The membrane was blocked with 5% non-fat milk in PBS for 1 hour at room temperature. Primary antibody (anti NS5A antibody; BIODESIGN International, Saco, Me. or anti NS3 antibody, Rigel) incubation was performed for 1 hour at room temperature, after which the membrane was washed 3 times (for 15 min per time) with PBST (PBS plus 0.1% Tween 20). Horseradish peroxidase conjugated secondary antibody incubation was performed for 1 hour at room temperature and the membrane was washed 3 times (for 15 min per time) with PBST. The membrane was then soaked in substrate solution (Pierce) and exposed to a film or quantified using an imager. In this assay, the amount of test compound that yielded a 50% reduction in the amount of NS5A or NS3 protein translated as compared to a control sample (IC50) was determined.
In TABLE 1, a value of “+” indicates an IC50 of 10 μM or less in the specified assay; a value of “−” indicates an IC50 of greater than 10 μM in the specified assay.

[3] = Cytotoxicity assay (Cell Titer Glo); type: cell-based; settings: human; 48 hr with compound, ATP-dependent Cell Titer Glo assay; read-out: IC50 in cytotoxicity assay (number of viable cells)
Description: Compounds 67, 167, 169, 13, 1, 145, 29, 119, 63, 31, 39, 103, 123, 121, 97, 129, 79, 111, 85, 89, 109, 127, 131, 95, 47, 57, 69, 165, 161, 163, 3, 137, 15, 141, 41, 53, 33, 113, 93, 105, 77, 91, 81, 83, 35, 27, 65, 7, 135, 51, 139, 51, 49, 143, 5, 149, 11, 37, 21, 45, 61, 75, 23, 125, 73, 43, 171 and 101 were tested in a cytotoxicity assay with liver cells including an HCV replicon (5-2 Luc cells, 9–13 cells or Huh-7 cells). In the assay, cells were seeded onto 96-well plates (approx. 7500 cells/well in a volume of 90 μl) and grown for 24 hr at 37° C. On day 2, various concentrations of test compound (in a volume of 10 μl) were added to the wells and the cells were grown for an additional 48 hr at 37° C. On day 4, an ATP-dependent R-Luciferase assay (Cell Titer Glo assay) was performed to determine the number of viable cells.

Row | SMILES | IC50 [1] [µM] | IC50 [2] [µM] | IC50 ([1]; Hepatitis C virus) [µM] | IC50 at 48 h [3] [µM]
1 | COC(=O)c1cccc(Cl)c1-c1cc(-c2cccc(NC(=O)C(Cl)Cl)c2)on1 [Compound 680] | < 10 | < 10 |  | 
2 | O=C(Nc1cccc(-c2cc(-c3c(N4CCOCC4)cccc3C(F)(F)F)no2)c1)C(Cl)Cl [Compound 37, 2,2-Dichloro-N-[3-[3-[2-(N-morpholino)-6-trifluoromethylphenyl)-5-isoxazolyl]phenyl]Acetamide] | < 10 | < 10 |  | 
3 | O=C(Nc1cccc(-c2cc(-c3c(Cl)cccc3OC3CCCC3)no2)c1)C(Cl)Cl [Compound 699] | < 10 | < 10 |  | 
4 | COc1cccc(C(=O)OC(C)(C)C)c1-c1cc(-c2cccc(NC(=O)C(Cl)Cl)c2)on1 [Compound 700] | < 10 | > 10 |  | 
5 | CC(C)(C)OC(=O)NC1CCN(c2cccc(Cl)c2-c2cc(-c3cccc(NC(=O)C(Cl)Cl)c3)on2)C1 (centres unmarked) [Compound 671] | < 10 | < 10 |  | 
6 | Cc1ccc(C(=O)N2CCN(c3cccc(Cl)c3-c3cc(-c4cccc(NC(=O)C(Cl)Cl)c4)on3)CC2)cc1 [Compound 665] | < 10 | < 10 |  | 
7 | O=C(O)c1cccc(F)c1-c1cc(-c2cccc(NC(=O)C(Cl)Cl)c2)on1 [Compound 703] | > 10 | > 10 |  | 
8 | Cc1oc(=O)oc1COC(=O)c1cccc(Cl)c1-c1cc(-c2cccc(NC(=O)C(Cl)Cl)c2)on1 [Compound 707] | < 10 | < 10 |  | 
9 | O=C(Nc1cccc(-c2cc(-c3c(Cl)cccc3OC(F)F)no2)c1)C(Cl)Cl [Compound 710] | < 10 | < 10 |  | 
10 | O=C(Nc1cccc(-c2cc(-c3c(Cl)cccc3C(=O)N3CCOCC3)no2)c1)C(Cl)Cl [Compound 689] |  | < 10 |  | 
11 | NC1CCN(c2cccc(Cl)c2-c2cc(-c3cccc(NC(=O)C(Cl)Cl)c3)on2)C1 (centres unmarked) [Compound 673] |  | < 10 |  | 
12 | CN(C)C(=O)NC1CCN(c2cccc(Cl)c2-c2cc(-c3cccc(NC(=O)C(Cl)Cl)c3)on2)C1 (centres unmarked) [Compound 675] |  | < 10 |  | 
13 | O=C(Nc1cccc(-c2cc(-c3c(F)ccc(F)c3Cl)no2)c1)C(Cl)Cl [Compound 53, 2,2-Dichloro-N-[3-[3-(2-chloro-3,6-difluorophenyl)-5-isoxazolyl]phenyl]Acetamide] |  |  | < 10 | > 10
14 | COc1cccc(C)c1-c1cc(-c2cccc(NC(=O)C(Cl)Cl)c2)on1 [Compound 91, 2,2-Dichloro-N-[3-[3-(2-methoxy-6-methylphenyl)-5-isoxazolyl]phenyl]Acetamide] |  |  | < 10 | > 10
15 | Cc1ccc(Cl)c(-c2cc(-c3cccc(NC(=O)C(Cl)Cl)c3)on2)c1F [Compound 51, 2,2-Dichloro-N-[3-[3-(6-chloro-2-fluoro-3-methylphenyl)-5-isoxazolyl]phenyl]Acetamide] |  |  | < 10 | > 10
16 | Cc1cc(C)c(-c2cc(-c3cccc(NC(=O)C(Cl)Cl)c3)on2)c(C)c1 [Compound 69, 2,2-Dichloro-N-[3-[3-(2,4,6-trimethylphenyl)-5-isoxazolyl]phenyl]Acetamide] |  |  | < 10 | 3

Row | SMILES | IC50 [1] [µM] | IC50 [2] [µM] | IC50 ([1]; Hepatitis C virus) [µM] | IC50 at 48 h [3] [µM]
17 | O=C(Nc1cccc(-c2cc(-c3c(Cl)cccc3N3CCOCC3)no2)c1)C(Cl)Cl [Compound 7, 2,2-Dichloro-N-[3-[3-[2-chloro-6-(N-morpholino)phenyl]-5-isoxazolyl]phenyl]Acetamide] |  | < 10 |  | 
18 | O=C(Nc1cccc(-c2cc(-c3c(C4CC4)cccc3C(F)(F)F)no2)c1)C(Cl)Cl [Compound 89, 2,2-Dichloro-N-[3-[3-(2-cyclopropyl-6-trifluoromethylphenyl)-5-isoxazolyl]phenyl]Acetamide] |  |  | < 10 | > 10
19 | O=C(Nc1cccc(-c2cc(-c3ccccc3OC(F)F)no2)c1)C(Cl)Cl [Compound 45, 2,2-Dichloro-N-[3-[3-(2-difluoromethoxyphenyl)-5-isoxazolyl]phenyl]Acetamide] |  |  | < 10 | > 10
20 | Cc1ccc(-c2cc(-c3c(Cl)cccc3Cl)no2)cc1NC(=O)C(Cl)Cl [Compound 165, 2,2-Dichloro-N-[3-[3-(2,6-dichlorophenyl)-5-isoxazolyl]-6-methylphenyl]Acetamide] |  |  | > 10 | > 10
21 | CN(C)c1cc(Cl)c(-c2cc(-c3cccc(NC(=O)C(Cl)Cl)c3)on2)c(Cl)c1 [Compound 65, 2,2-Dichloro-N-[3-[3-(2,6-dichloro-4-dimethylaminophenyl)-5-isoxazolyl]phenyl]Acetamide] |  |  | < 10 | > 10
22 | CC(C)c1ccccc1-c1cc(-c2cccc(NC(=O)C(Cl)Cl)c2)on1 [Compound 63, 2,2-Dichloro-N-[3-[3-(2-isopropylphenyl)-5-isoxazolyl]phenyl]Acetamide] |  |  | < 10 | > 10
23 | O=C(Nc1cccc(-c2cc(-c3c(F)cccc3C(F)(F)F)no2)c1)C(Cl)Cl [Compound 41, 2,2-Dichloro-N-[3-[3-(2-fluoro-6-trifluoromethylphenyl)-5-isoxazolyl]phenyl]Acetamide] |  |  | < 10 | > 10
24 | CC(C)c1cccc(C(F)(F)F)c1-c1cc(-c2cccc(NC(=O)C(Cl)Cl)c2)on1 [Compound 93, 2,2-Dichloro-N-[3-[3-(2-isopropyl-6-trifluoromethylphenyl)-5-isoxazolyl]phenyl]Acetamide] |  |  | < 10 | > 10
25 | CC(C)Oc1ccccc1-c1cc(-c2cccc(NC(=O)C(Cl)Cl)c2)on1 [Compound 119, 2,2-Dichloro-N-[3-[3-(2-isopropyloxyphenyl)-5-isoxazolyl]phenyl]Acetamide] |  |  | < 10 | > 10
26 | CCOc1ccccc1-c1cc(-c2cccc(NC(=O)C(Cl)Cl)c2)on1 [Compound 61, 2,2-Dichloro-N-[3-[3-(2-ethoxyphenyl)-5-isoxazolyl]phenyl]Acetamide] |  |  | < 10 | > 10
27 | O=C(Nc1cccc(-c2cc(-c3ccccc3OC(F)(F)F)no2)c1)C(Cl)Cl [Compound 113, 2,2-Dichloro-N-[3-[3-(2-trifluoromethoxyphenyl)-5-isoxazolyl]phenyl]Acetamide] |  |  | < 10 | > 10
28 | O=C(Nc1cccc(-c2cc(-c3c(Cl)cccc3C3CC3)no2)c1)C(Cl)Cl [Compound 79, 2,2-Dichloro-N-[3-[3-(2-chloro-6-cyclopropylphenyl)-5-isoxazolyl]phenyl]Acetamide] |  |  | < 10 | > 10
29 | O=C(Nc1cccc(-c2cc(-c3c(C4CCCC4)cccc3C(F)(F)F)no2)c1)C(Cl)Cl [Compound 105, 2,2-Dichloro-N-[3-[3-(2-cyclopentyl-6-trifluoromethylphenyl)-5-isoxazolyl]phenyl]Acetamide] |  |  | < 10 | > 5
30 | CS(=O)(=O)NC1CCN(c2cccc(Cl)c2-c2cc(-c3cccc(NC(=O)C(Cl)Cl)c3)on2)C1 (centres unmarked) [Compound 682] |  | < 10 |  | 
31 | Cc1cccc(Cl)c1-c1cc(-c2cccc(NC(=O)C(Cl)Cl)c2)on1 [Compound 31, 2,2-Dichloro-N-[3-[3-(2-chloro-6-methylphenyl)-5-isoxazolyl]phenyl]Acetamide] |  |  | < 10 | > 10
32 | O=C(Nc1cccc(-c2cc(-c3c(Cl)ccc(Cl)c3Cl)no2)c1)C(Cl)Cl [Compound 137, 2,2-Dichloro-N-[3-[3-(2,3,6-trichlorophenyl)-5-isoxazolyl]phenyl]Acetamide] |  |  | > 10 | > 10
